US20250351832A1, “PHYTOCHEMICALS AS BIOPESTICIDES AND BIOSTIMULANTS” (KAY BEE BIO ORGANICS PVT. LTD., priority 2024, published 2025)
Read-outs that look alike come from different tables or passages of the source.

What was measured:
Thrips [1] = tested on: Thrips
[2] = cited from earlier work; for Phytotonic Effect: Table 13, effect on plants, descriptive
Aphid [3] = settings: 48 h, 1 mL or g/L
chili seedlings = assay: Response of chili plants, greenhouse growth (Ex. 31); type: in vivo; settings: for CCI 5th Day / Plant Height (cm) 5th Day: 120 h; for CCI 10th Day / Plant Height (cm) 10th Day / Root Lenght % Increase over control: 240 h; for CCI % Increase over pre on 10th Day / Plant Height % Increase over pre on 10th Day / Root Lenght (cm) 10th Day / Stem Girth % Increase over pre on 10th Day: chili seedlings, dose 1 ml/gm/lit
Helicoverpa armigera [4] = tested on: Helicoverpa armigera
Spodoptera litura [5] = tested on: Spodoptera litura
Thrips [6] = assay: whole plant or invertebrate; settings: in Gossypium hirsutum, 48 h
Helicoverpa armigera [7] = tested on: Helicoverpa armigera; remark: listed apart in the source
Aphid [8] = assay: whole plant or invertebrate; settings: 48 h
Aphid [9] = tested on: Aphid
Thrips [10] = settings: 48 h, 1 mL or g/L
tomato seedlings = assay: Response of tomato plants, greenhouse growth (Ex. 30); type: in vivo; settings: for CCI 5th Day / Plant Height 5th Day / Stem Girth 5th Day: 120 h; for CCI 10th Day / Plant Height 10th Day / Root Length % Increase over control / Stem Girth 10th Day: 240 h; for Plant Height % Increase over pre on 10th Day / Stem Girth % Increase over pre on 10th Day / CCI % Increase over pre on 10th Day / Root Length (cm) 10th Day: tomato seedlings, dose 1 ml/gm/lit
Alternaria alternata = assay: In vitro poisoned food technique against fungus (Ex. 20); type: cell-based; settings: […]
Spodoptera litura [11] = tested on: Spodoptera litura; remark: listed apart in the source
Spodoptera litura [12] = assay: whole plant or invertebrate; settings: 72 h
Mealy Bug [13] = settings: mealy bug on cotton plants, green house, dose 1 ml/gm/lit. spray
Mealy Bug [14] = settings: Mealy Bug on cotton leaves, dose 1 ml/gm/lit., 48 Hrs.
Mite [15] = tested on: Mite
Mite [16] = tested on: Mite; remark: listed apart in the source
[17] = Table 13, descriptive, no test described
[18] = read-out: % Corrected Mortality at 48 Hrs.
[19] = read-out: % Mortality at 48 Hrs.
[20] = read-out: % Corrected Mortality at 72 Hrs.
[21] = read-out: % Mortality at 72 Hrs.

## Cc1ccc(C(C)C)cc1 [p-Cymene]
Thrips [1]
  Total No. of dead insect at 48 Hrs.: 57.50
Thrips [1]; in vivo
  % Corrected Mortality at 48 Hrs.: 52.78%
  % Mortality at 48 Hrs.: 57.50%
[2]; [17]
  Acaricidal Activity - Mode of action: Showed mortality against
  Bactericidal Activity - Mode of action: Strong anti-bacterial
  Insecticidal Activities - Mode of action: High mortality against
  Nematicidal Activity - Mode of action: Effective in reducing
[2]
  Phytotonic Effect: Trigger plant
Aphid [3]
  Total No. of dead insect at 48 Hrs.: 60.00
Chili seedlings
  CCI Pre: 9.30
  Plant Height (cm) Pre: 4.29 cm
  CCI 5th Day: 11.47
  Plant Height (cm) 5th Day: 6.13 cm
  CCI 10th Day: 13.48
  Plant Height (cm) 10th Day: 6.48 cm
  Root Lenght % Increase over control: 15.10%
  CCI % Increase over pre on 10th Day: 44.95%
  Plant Height % Increase over pre on 10th Day: 51.05%
  Root Lenght (cm) 10th Day: 3.15 cm
  Stem Girth % Increase over pre on 10th Day: 40.29%
Helicoverpa armigera [4]; in vivo
  % Corrected Mortality at 72 Hrs.: 65.00%
  % Mortality at 72 Hrs.: 65.00%
Spodoptera litura [5]; in vivo
  % Corrected Mortality at 72 Hrs.: 68.42%
  % Mortality at 72 Hrs.: 70.00%
Thrips [6]; [18]
  mortality at 1 mL or g/L: 54.3%
Thrips [6]; [19]
  mortality at 1 mL or g/L: 60%
Helicoverpa armigera [7]; in vivo
  % Corrected Mortality at 72 Hrs.: 65.00%
  % Mortality at 72 Hrs.: 65.00%
Aphid [8]; [18]
  mortality at 1 mL or g/L: 52.9%
Aphid [8]; [19]
  mortality at 1 mL or g/L: 60%
Aphid [9]
  Total No. of dead insect at 48 Hrs.: 6.00
Aphid [9]; in vivo
  % Corrected Mortality at 48 Hrs.: 54.29%
Thrips [10]
  Total No. of dead insect at 48 Hrs.: 6.00
Tomato seedlings
  CCI Pre: 12.58
  Plant Height Pre: 6.12 cm
  Stem Girth Pre: 1.35 mm
  CCI 5th Day: 14.52
  Plant Height 5th Day: 7.24 cm
  Stem Girth 5th Day: 1.82 mm
  CCI 10th Day: 15.68
  Plant Height 10th Day: 7.84 cm
  Root Length % Increase over control: 21.38%
  Stem Girth 10th Day: 2.06 mm
  Plant Height % Increase over pre on 10th Day: 28.10%
  Stem Girth % Increase over pre on 10th Day: 52.59%
  CCI % Increase over pre on 10th Day: 24.64%
  Root Length (cm) 10th Day: 4.04 cm
Alternaria alternata
  inhibition of growth at 1 mL or g/L: 34.1%
Spodoptera litura [11]; Spodoptera litura on castor leaves, dose 1 ml/gm/lit., 10 insects/treatment, 72 hrs after application
  Total No. of dead insect at 72 Hrs.: 7.25
Spodoptera litura [12]; [20]
  mortality at 1 mL or g/L: 71%
Spodoptera litura [12]; [21]
  mortality at 1 mL or g/L: 72.5%

## C=C1C2CCC(C2)C1(C)C (stereo not drawn) [Camphene, camphene]
Thrips [1]
  Total No. of dead insect at 48 Hrs.: 50.00
Thrips [1]; thrips on cotton plants, greenhouse, dose 1 ml/gm/lit. spray, 48 hrs after application
  % Mortality at 48 Hrs.: 50.00%
Thrips [1]; thrips on cotton plants, greenhouse, dose 1 ml/gm/lit. spray, 48 hrs, corrected for water control
  % Corrected Mortality at 48 Hrs.: 44.44%
[2]
  Phytotonic Effect: Trigger the nutrition
Aphid [3]
  Total No. of dead insect at 48 Hrs.: 50.00
Mealy Bug [13]; 48 hrs after application
  % Mortality at 48 Hrs.: 52.50%
Mealy Bug [13]; 48 hrs, corrected for water control
  % Corrected Mortality at 48 Hrs.: 47.22%
Chili seedlings
  CCI Pre: 9.35
  Plant Height (cm) Pre: 3.94 cm
  CCI 5th Day: 10.40
  Plant Height (cm) 5th Day: 5.97 cm
  CCI 10th Day: 12.02
  Plant Height (cm) 10th Day: 6.21 cm
  Root Lenght % Increase over control: 27.80%
  CCI % Increase over pre on 10th Day: 28.56%
  Plant Height % Increase over pre on 10th Day: 57.61%
  Root Lenght (cm) 10th Day: 3.50 cm
  Stem Girth % Increase over pre on 10th Day: 43.80%
Helicoverpa armigera [4]; Helicoverpa armigera on okra fruits, dose 1 ml/gm/lit., 72 Hrs.
  % Mortality at 72 Hrs.: 62.50%
Helicoverpa armigera [4]; Helicoverpa armigera on okra fruits, dose 1 ml/gm/lit., 72 Hrs., corrected for water control
  % Corrected Mortality at 72 Hrs.: 62.50%
Spodoptera litura [5]; Spodoptera litura 3rd instar on cabbage plants, dose 1 ml/gm/lit. spray, 72 hrs after application
  % Mortality at 72 Hrs.: 65.00%
Spodoptera litura [5]; Spodoptera litura 3rd instar on cabbage plants, dose 1 ml/gm/lit. spray, 72 hrs, corrected for water control
  % Corrected Mortality at 72 Hrs.: 63.16%
Thrips [6]; [18]
  mortality at 1 mL or g/L: 45.7%
Thrips [6]; [19]
  mortality at 1 mL or g/L: 52.5%
Helicoverpa armigera [7]; Helicoverpa armigera 3rd instar on chickpea plants, dose 1 ml/gm/lit. spray, 72 hrs after application
  % Mortality at 72 Hrs.: 60.00%
Helicoverpa armigera [7]; Helicoverpa armigera 3rd instar on chickpea plants, dose 1 ml/gm/lit. spray, 72 hrs, corrected for water control
  % Corrected Mortality at 72 Hrs.: 60.00%
Mealy Bug [14]
  % Mortality at 48 Hrs.: 45.00%
Mealy Bug [14]; corrected for water control
  % Corrected Mortality at 48 Hrs.: 42.11%
Aphid [8]; [18]
  mortality at 1 mL or g/L: 41.2%
Aphid [8]; [19]
  mortality at 1 mL or g/L: 50%
Mite [15]; mite on okra plants, green house, dose 1 ml/gm/lit. spray, 48 hrs after application
  % Mortality at 48 Hrs.: 40.00%
Mite [15]; mite on okra plants, green house, dose 1 ml/gm/lit. spray, 48 hrs, corrected for water control
  % Corrected Mortality at 48 Hrs.: 36.84%
Aphid [9]
  Total No. of dead insect at 48 Hrs.: 5.25
Aphid [9]; Dose 1 ml/gm/lit., 48 hrs
  % Corrected Mortality at 48 Hrs.: 45.71%
  % Mortality at 48 Hrs.: 52.50%
Thrips [10]
  Total No. of dead insect at 48 Hrs.: 5.25
Tomato seedlings
  CCI Pre: 11.85
  Plant Height Pre: 5.75 cm
  Stem Girth Pre: 1.29 mm
  CCI 5th Day: 13.99
  Plant Height 5th Day: 6.82 cm
  Stem Girth 5th Day: 1.49 mm
  CCI 10th Day: 14.95
  Plant Height 10th Day: 7.34 cm
  Root Length % Increase over control: 14.19%
  Stem Girth 10th Day: 2.07 mm
  Plant Height % Increase over pre on 10th Day: 27.65%
  Stem Girth % Increase over pre on 10th Day: 60.47%
  CCI % Increase over pre on 10th Day: 26.16%
  Root Length (cm) 10th Day: 3.80 cm
Mite [16]; Dose 1 ml/gm/lit., 48 hrs
  % Corrected Mortality at 48 Hrs.: 35.14%
  % Mortality at 48 Hrs.: 40.00%
Alternaria alternata
  inhibition of growth at 1 mL or g/L: 18.8%
Spodoptera litura [11]; 72 h, 1 mL or g/L
  Total No. of dead insect at 72 Hrs.: 6.75
Spodoptera litura [12]; [20]
  mortality at 1 mL or g/L: 65.8%
Spodoptera litura [12]; [21]
  mortality at 1 mL or g/L: 67.5%

## CC(C)=CCCC(C)=CC=O [Citral]
Thrips [1]
  Total No. of dead insect at 48 Hrs.: 57.50
Thrips [1]; in vivo
  % Corrected Mortality at 48 Hrs.: 52.78%
[2]; [17]
  Acaricidal Activity - Mode of action: Repelling and killing
  Antifungal Activity - Mode of action: Inhibited the mycelial
  Antioxidant Activity - Mode of action: Induced the overexpression
  Bactericidal Activity - Mode of action: High mortality against
  Insecticidal Activities - Mode of action: Repellent and Antifeedant
  Nematicidal Activity - Mode of action: Strong Nematicidal activity
  Virucidal Activity - Mode of action: Increases plant disease
[2]
  Phytotonic Effect: Trigger
Aphid [3]
  Total No. of dead insect at 48 Hrs.: 70.00
Chili seedlings
  CCI Pre: 8.60
  Plant Height (cm) Pre: 4.47 cm
  CCI 5th Day: 11.02
  Plant Height (cm) 5th Day: 6.30 cm
  CCI 10th Day: 12.02
  Plant Height (cm) 10th Day: 6.79 cm
  Root Lenght % Increase over control: 14.22%
  CCI % Increase over pre on 10th Day: 39.77%
  Plant Height % Increase over pre on 10th Day: 52.01%
  Root Lenght (cm) 10th Day: 3.13 cm
  Stem Girth % Increase over pre on 10th Day: 38.62%
Spodoptera litura [5]; in vivo
  % Corrected Mortality at 72 Hrs.: 50.00%
  % Mortality at 72 Hrs.: 52.50%
Thrips [6]; [18]
  mortality at 1 mL or g/L: 51.4%
Thrips [6]; [19]
  mortality at 1 mL or g/L: 57.5%
Aphid [8]; [18]
  mortality at 1 mL or g/L: 64.7%
Aphid [8]; [19]
  mortality at 1 mL or g/L: 70%
Mite [15]; in vivo
  % Mortality at 48 Hrs.: 55.00%
Aphid [9]
  Total No. of dead insect at 48 Hrs.: 6.50
Aphid [9]; in vivo
  % Corrected Mortality at 48 Hrs.: 60.00%
  % Mortality at 48 Hrs.: 65.00%
Thrips [10]
  Total No. of dead insect at 48 Hrs.: 5.75
Tomato seedlings
  CCI Pre: 11.20
  Plant Height Pre: 6.11 cm
  Stem Girth Pre: 1.35 mm
  CCI 5th Day: 13.34
  Plant Height 5th Day: 7.15 cm
  Stem Girth 5th Day: 1.46 mm
  CCI 10th Day: 14.25
  Plant Height 10th Day: 7.85 cm
  Root Length % Increase over control: 25.08%
  Stem Girth 10th Day: 2.12 mm
  Plant Height % Increase over pre on 10th Day: 28.48%
  Stem Girth % Increase over pre on 10th Day: 56.50%
  CCI % Increase over pre on 10th Day: 27.23%
  Root Length (cm) 10th Day: 4.16 cm
Mite [16]; in vivo
  % Mortality at 48 Hrs.: 55.00%
Alternaria alternata
  inhibition of growth at 1 mL or g/L: 48.3%
Spodoptera litura [11]; 72 h, 1 mL or g/L
  Total No. of dead insect at 72 Hrs.: 5.50
Spodoptera litura [12]; [20]
  mortality at 1 mL or g/L: 52.6%
Spodoptera litura [12]; [21]
  mortality at 1 mL or g/L: 55%
